The term melting point denotes the temperature, or range, at which the solid turns liquid.

System in the first data set: not given
Experiment: not given
Details: not given
`CNC(=O)c1cc(I)cc(C)c1NC(=O)c1cc(Cl)nn1-c1ncccc1Cl` returned a melting point of 233 to 234 °C.

Molecule `Cc1cc(Br)cc(C(=O)NC(C)C)c1NC(=O)c1cc(C(F)(F)F)nn1-c1ncccc1Cl` yielded a melting point of 197 to 198 °C.

In the case of `CCNC(=O)c1cc(Br)cc(C)c1NC(=O)c1cc(Cl)nn1-c1ncccc1Cl`, the melting point lay in the range of 192 to 194 °C.

Molecule `CCNC(=O)c1cc(Br)cc(C)c1NC(=O)c1cc(Br)nn1-c1ncccc1Cl` yielded a melting point of 194 to 196 °C.

The molecule `Cc1cc(Cl)cc(C(=O)NC(C)C)c1NC(=O)c1cc(OCC(F)(F)F)nn1-c1ncccc1Cl` returned a melting point of 217 to 218 °C.

On to `CCNC(=O)c1cc(Br)cc(Br)c1NC(=O)c1cc(Br)nn1-c1ncccc1Cl`, for which the melting point was in the range of 196 to 197 °C.

`CN(C)C(=O)c1cc(Br)cc(Br)c1NC(=O)c1cc(C(F)(F)F)nn1-c1ncccc1Cl` showed a melting point of 228 to 229 °C.

`CCNC(=O)c1cc(Cl)cc(C)c1NC(=O)c1cc(Cl)nn1-c1ncccc1Cl` returned a melting point of 199 to 200 °C.

`CC(C)(C)NC(=O)c1cc(Br)cc(Br)c1NC(=O)c1cc(C(F)(F)F)nn1-c1ncccc1Cl`: the melting point lay in the range of 246 to 247 °C.

For the molecule `CN(C)C(=O)c1cc(Cl)cc(Cl)c1NC(=O)c1cc(Cl)nn1-c1ncccc1Cl`, the melting point fell in the range of 231 to 232 °C.

`Cc1cc(I)cc(C(=O)NC(C)(C)C)c1NC(=O)c1cc(C(F)(F)F)nn1-c1ncccc1Cl`: the melting point fell in the range of 242 to 243 °C.

`CC(C)NC(=O)c1cc(Cl)cc(Cl)c1NC(=O)c1cc(OCC(F)(F)F)nn1-c1ncccc1Cl` returned a melting point of 232 to 235 °C.

With `CCNC(=O)c1cc(Cl)cc(Cl)c1NC(=O)c1cc(C(F)(F)F)nn1-c1ncccc1Cl`, the melting point was in the range of 201 to 202 °C.

`CNC(=O)c1cc(Br)cc(C)c1NC(=O)c1cc(Br)nn1-c1ncccc1Cl` displayed a melting point of 147 to 149 °C.

The molecule `CNC(=O)c1cc(Cl)cc(Cl)c1NC(=O)c1cc(OCC(F)(F)F)nn1-c1ncccc1Cl` returned a melting point of 192 to 195 °C.

Turning to `CNC(=O)c1cc(Br)cc(Br)c1NC(=O)c1cc(C(F)(F)F)nn1-c1ncccc1Cl`, the melting point lay within 162 to 163 °C.

With `CC(C)NC(=O)c1cc(Cl)cc(Cl)c1NC(=O)c1cc(Br)nn1-c1ncccc1Cl`, the melting point is 188 to 190 °C.

The molecule `CNC(=O)c1cc(Br)cc(Br)c1NC(=O)c1cc(Br)nn1-c1ncccc1Cl` returned a melting point of 166 to 168 °C.

`CNC(=O)c1cc(Br)cc(Br)c1NC(=O)c1cc(Cl)nn1-c1ncccc1Cl` came in with a melting point of 188 to 190 °C.

As to `CN(C)C(=O)c1cc(Cl)cc(Cl)c1NC(=O)c1cc(Br)nn1-c1ncccc1Cl`, the melting point lay in the range of 216 to 218 °C.

On to `Cc1cc(Br)cc(C(=O)N(C)C)c1NC(=O)c1cc(C(F)(F)F)nn1-c1ncccc1Cl`, for which the melting point was in the range of 207 to 208 °C.

As for `CC(C)(C)NC(=O)c1cc(Cl)cc(Cl)c1NC(=O)c1cc(Br)nn1-c1ncccc1Cl`, the melting point lay in the range of 179 to 180 °C.

`CN(C)C(=O)c1cc(Br)cc(Br)c1NC(=O)c1cc(Cl)nn1-c1ncccc1Cl`: the melting point lay within 153 to 155 °C.

Regarding `Cc1cc(Cl)cc(C(=O)NC(C)(C)C)c1NC(=O)c1cc(Cl)nn1-c1ncccc1Cl`, the melting point was 163 to 165 °C.

The molecule `CC(C)NC(=O)c1cc(Br)cc(Br)c1NC(=O)c1cc(C(F)(F)F)nn1-c1ncccc1Cl` yielded a melting point of 192 to 193 °C.

`CCNC(=O)c1cc(I)cc(C)c1NC(=O)c1cc(Cl)nn1-c1ncccc1Cl` displayed a melting point of 196 to 197 °C.

As to `CCNC(=O)c1cc(Cl)cc(Cl)c1NC(=O)c1cc(Cl)nn1-c1ncccc1Cl`, the melting point lay within 206 to 208 °C.

`Cc1cc(Cl)cc(C(=O)NC(C)(C)C)c1NC(=O)c1cc(Br)nn1-c1ncccc1Cl` registered a melting point of 159 to 161 °C.

Molecule `CCNC(=O)c1cc(I)cc(C)c1NC(=O)c1cc(C(F)(F)F)nn1-c1ncccc1Cl` returned a melting point of 199 to 200 °C.

Consider `CC(C)(C)NC(=O)c1cc(Br)cc(Cl)c1NC(=O)c1cc(C(F)(F)F)nn1-c1ncccc1Cl`, for which the melting point fell in the range of 143 to 145 °C.

`CNC(=O)c1cc(Cl)cc(C)c1NC(=O)c1cc(Cl)nn1-c1ncccc1Cl` registered a melting point of 225 to 226 °C.

As to `CC(C)NC(=O)c1cc(Br)cc(Br)c1NC(=O)c1cc(Br)nn1-c1ncccc1Cl`, the melting point fell in the range of 162 to 163 °C.

`CCNC(=O)c1cc(Cl)cc(C)c1NC(=O)c1cc(Br)nn1-c1ncccc1Cl` gave a melting point of 194 to 195 °C.

`CNC(=O)c1cc(Cl)cc(Cl)c1NC(=O)c1cc(C(F)(F)F)nn1-c1ncccc1Cl` registered a melting point of 155 to 157 °C.

In turn, `CNC(=O)c1cc(I)cc(C)c1NC(=O)c1cc(Br)nn1-c1ncccc1Cl` showed a melting point of 229 to 230 °C.

As to `CC(C)NC(=O)c1cc(Br)cc(Br)c1NC(=O)c1cc(Cl)nn1-c1ncccc1Cl`, the melting point is 197 to 199 °C.

As to `Cc1cc(I)cc(C(=O)NC(C)C)c1NC(=O)c1cc(C(F)(F)F)nn1-c1ncccc1Cl`, the melting point lay within 188 to 189 °C.

Turning to `CN(C)C(=O)c1cc(Cl)cc(Cl)c1NC(=O)c1cc(C(F)(F)F)nn1-c1ncccc1Cl`, the melting point was in the range of 225 to 227 °C.

With `CNC(=O)c1cc(Br)cc(C)c1NC(=O)c1cc(Cl)nn1-c1ncccc1Cl`, the melting point is 140 to 141 °C.

`CCNC(=O)c1cc(Cl)cc(C)c1NC(=O)c1cc(C(F)(F)F)nn1-c1ncccc1Cl` showed a melting point of 163 to 164 °C.

`Cc1cc(Br)cc(C(=O)NC(C)(C)C)c1NC(=O)c1cc(Br)nn1-c1ncccc1Cl`: the melting point was 215 to 221 °C.

The molecule `Cc1cc(I)cc(C(=O)NC(C)(C)C)c1NC(=O)c1cc(Cl)nn1-c1ncccc1Cl` registered a melting point of 228 to 229 °C.

The molecule `Cc1cc(I)cc(C(=O)NC(C)C)c1NC(=O)c1cc(Br)nn1-c1ncccc1Cl` yielded a melting point of 191 to 192 °C.

The molecule `CCNC(=O)c1cc(Cl)cc(C)c1NC(=O)c1cc(OCC(F)(F)F)nn1-c1ncccc1Cl` had a melting point of 205 to 207 °C.

Turning to `CNC(=O)c1cc(Cl)cc(Cl)c1NC(=O)c1cc(Br)nn1-c1ncccc1Cl`, the melting point fell in the range of 245 to 246 °C.

Molecule `Cc1cc(Br)cc(C(=O)NC(C)C)c1NC(=O)c1cc(Cl)nn1-c1ncccc1Cl` registered a melting point of 152 to 153 °C.

In turn, `CNC(=O)c1cc(I)cc(C)c1NC(=O)c1cc(C(F)(F)F)nn1-c1ncccc1Cl` returned a melting point of 199 to 200 °C.

For the molecule `CC(C)(C)NC(=O)c1cc(Br)cc(Br)c1NC(=O)c1cc(Cl)nn1-c1ncccc1Cl`, the melting point lay within 210 to 212 °C.

For `CC(C)NC(=O)c1cc(Cl)cc(Cl)c1NC(=O)c1cc(C(F)(F)F)nn1-c1ncccc1Cl`, the melting point fell in the range of 200 to 201 °C.

Take `CNC(=O)c1cc(Br)cc(C)c1NC(=O)c1cc(C(F)(F)F)nn1-c1ncccc1Cl`: the melting point fell in the range of 222 to 223 °C.

Turning to `Cc1cc(Br)cc(C(=O)NC(C)(C)C)c1NC(=O)c1cc(Cl)nn1-c1ncccc1Cl`, the melting point fell in the range of 224 to 225 °C.

Consider `CCNC(=O)c1cc(Br)cc(C)c1NC(=O)c1cc(C(F)(F)F)nn1-c1ncccc1Cl`, for which the melting point was in the range of 192 to 193 °C.

For the molecule `CC(C)(C)NC(=O)c1cc(Cl)cc(Cl)c1NC(=O)c1cc(C(F)(F)F)nn1-c1ncccc1Cl`, the melting point was in the range of 170 to 172 °C.

Regarding `CC(C)(C)NC(=O)c1cc(Cl)cc(Cl)c1NC(=O)c1cc(Cl)nn1-c1ncccc1Cl`, the melting point lay within 172 to 173 °C.

As to `CNC(=O)c1cc(Cl)cc(Cl)c1NC(=O)c1cc(Cl)nn1-c1ncccc1Cl`, the melting point fell in the range of 205 to 206 °C.

Take `CCNC(=O)c1cc(Br)cc(Br)c1NC(=O)c1cc(Cl)nn1-c1ncccc1Cl`: the melting point lay within 192 to 194 °C.

`Cc1cc(Cl)cc(C(=O)NC(C)(C)C)c1NC(=O)c1cc(C(F)(F)F)nn1-c1ncccc1Cl`: the melting point fell in the range of 223 to 225 °C.

In turn, `CC(C)NC(=O)c1cc(Cl)cc(Cl)c1NC(=O)c1cc(Cl)nn1-c1ncccc1Cl` showed a melting point of 197 to 199 °C.

Turning to `Cc1cc(I)cc(C(=O)NC(C)C)c1NC(=O)c1cc(Cl)nn1-c1ncccc1Cl`, the melting point fell in the range of 189 to 190 °C.

In the case of `CNC(=O)c1cc(Cl)cc(C)c1NC(=O)c1cc(OCC(F)(F)F)nn1-c1ncccc1Cl`, the melting point lay in the range of 207 to 208 °C.

Turning to `CCNC(=O)c1cc(Cl)cc(Cl)c1NC(=O)c1cc(Br)nn1-c1ncccc1Cl`, the melting point lay in the range of 214 to 215 °C.

In turn, `Cc1cc(Br)cc(C(=O)NC(C)(C)C)c1NC(=O)c1cc(C(F)(F)F)nn1-c1ncccc1Cl` showed a melting point of 247 to 248 °C.

The molecule `Cc1cc(Br)cc(C(=O)NC(C)C)c1NC(=O)c1cc(Br)nn1-c1ncccc1Cl` came in with a melting point of 185 to 187 °C.

`CC(C)(C)NC(=O)c1cc(Br)cc(Br)c1NC(=O)c1cc(Br)nn1-c1ncccc1Cl` yielded a melting point of 194 to 196 °C.

`CCNC(=O)c1cc(Br)cc(Br)c1NC(=O)c1cc(C(F)(F)F)nn1-c1ncccc1Cl` yielded a melting point of 188 to 189 °C.

In turn, `CN(C)C(=O)c1cc(Br)cc(Br)c1NC(=O)c1cc(Br)nn1-c1ncccc1Cl` returned a melting point of 189 to 190 °C.

For another data set, the system named is Plutella xylostella, normally sensitive strain. Nature of the data set: Plutella xylostella test (normally sensitive strain). The class given is in vivo. Particulars: 20 ppm, 4 d. Here is the method:
(§1) To produce a suitable preparation of active compound, 1 part by weight of active compound is mixed with the stated amounts of solvent and emulsifier, and the concentrate is diluted with emulsifier-containing water to the desired concentration.
Cabbage leaves (Brassica oleracea) are treated by being dipped into the preparation of active compound of the desired concentration and are populated with caterpillars of the diamondback moth (Plutella xylostella, normally sensitive strain) while the leaves are still moist.
(§2) After the desired period of time, the kill in % is determined. 100% means that all caterpillars have been killed; 0% means that none of the caterpillars have been killed. The determined kill ratios are entered into Colby's formula (see page 39).
Consider `O=C(NC(=O)c1ccccc1Cl)Nc1ccc(OC(F)(F)F)cc1` [(2-5) triflumuron, triflumuron, reference compound], for which the “Kill rate in % after 4d found” value is reported as 60%.

A further data set concerns Heliothis armigera. Nature of the data set: Heliothis armigera test (soybean shoots dipped). Particulars: 0.8 ppm, 6 d. It is filed as in vivo. Here is the method: as §1
Soybean shoots (Glycine max) are treated by being dipped into the preparation of active compound of the desired concentration and are populated with caterpillars of the cotton bollworm (Heliothis armigera) while the leaves are still moist.
as §2
For `O=C(NC(=O)c1ccccc1Cl)Nc1ccc(OC(F)(F)F)cc1` [(2-5) triflumuron, triflumuron, reference compound], the “Kill rate in % after 6d found” value was determined as 0%.

Staying with this data set, now noted: 4 ppm, 3 d.
Consider `COc1cccc(C(=O)NN(C(=O)c2cc(C)cc(C)c2)C(C)(C)C)c1C` [(2-10) methoxyfenozide, methoxyfenozide, reference compound], for which the “Kill rate in % after 3d found” value was found to be 0%.

The values are drawn from US8735431B2, “Active compound combinations having insecticidal properties” (priority 2003, dated 2014).
